Source: patent US4200750A, “4-Substituted imidazo [1,2-a]quinoxalines” (Westwood Pharmaceuticals Inc., priority 1977, dated 1980)
Converted amounts (≈) assume the structure as drawn.

Columns and labels:
[1] = test system: T. rubrum; assay: Agar dilution antifungal assay, Trichophyton rubrum; type: cell-based, Trichophyton rubrum (ATCC No. 10218 and 14001); details: for MIC: Trichophyton rubrum, read-out: Parts Per Million Inhibitions, T. rubrum
Description: (§1) Various compounds of this invention display antifungal and anti-yeast activity.
(§2) In Table IX below are listed the antifungal activity of a number of compounds encompassed in the present invention. These were determined by the agar dilution method as described in Chapters 2 and 3 of Methods in Microbiology, Vol. 7B, edited by J. R. Norris and D. W. Ribbons, Academic Press, New York, 1972.

[2] = test system: T. mentagrophytes; assay: Agar dilution antifungal assay, Trichophyton mentagrophytes; type: cell-based, Trichophyton mentagrophytes (ATCC No. 8757 and 9129)
Description: as §1, §2

[3] = test system: T. ajelloi; assay: Agar dilution antifungal assay, Trichophyton ajelloi; type: cell-based
Description: as §1, §2

[4] = test system: Rat Paw Edema; assay: Rat paw edema assay, local administration; type: in vivo; details: injected directly into paw, carrageenan
Description: The anti-inflammatory activity of representative compounds of this invention was determined by the rat paw edema assay both by local administration (Table XI below) and by oral dosing (Table XII below). For the oral dosing, the procedure of C. A. Winter, E. A. Risley and G. W. Nuss, Proc. Soc. Exp. Biol. Med. 111, 544 (1962) was employed with measurement taken four hours after the drug was administered. The local administration tests were carried out similarly except the irritant (carrageenan) and the test compound were injected simultaneously at time zero.
Tables XI and XII report the anti-inflammatory activity of the compounds tested as % difference in the edema or swelling as compared with the control. These Tables also give the response in many instances of more than one dose level of the same drug.

[5] = test system: immunosuppressant activity; assay: Immunosuppressant activity (general statement); type: in vivo; details: result in words

## CCCCCCCCc1nc2ccccc2n2ccnc12 [Compound 117]
[1]
  MIC: 8 µg/mL (≈ 28.4 µM)
[2]; Trichophyton mentagrophytes, read-out: Parts Per Million Inhibitions, T. mentagrophytes
  MIC: 16 µg/mL (≈ 56.9 µM)
[3]; Arthroderma uncinatum, read-out: Parts Per Million Inhibitions, T. ajelloi
  MIC: 16 µg/mL (≈ 56.9 µM)

## CCCCCc1nc2ccccc2n2ccnc12 [Compound 114]
[4]
  % Difference from Control (edema), local administration, 10 μg: -30.0%

## CCCCc1nc2ccccc2n2ccnc12 [Compound 113]
[1]
  MIC: 16 µg/mL (≈ 71 µM)

## Clc1cccc(Nc2nc3ccccc3n3ccnc23)c1 [Compound 179]
[1]
  Parts Per Million Inhibitions, T. rubrum: 100 Parts Per Million
[2]
  Parts Per Million Inhibitions, T. mentagrophytes: 100 Parts Per Million
[3]
  Parts Per Million Inhibitions, T. ajelloi: 100 Parts Per Million

## c1ccc2c(c1)ncc1nccn12 [Compound 109, imidazo[1,2-a]quinoxaline]
[5]
  immunosuppressant activity: lacks immunosuppressant activity

## c1ccc(-c2nc3ccccc3n3ccnc23)cc1 [Compound 131, 4-phenylimidazo[1,2-a]quinoxaline]
[5]
  immunosuppressant activity: only minor activity
